In US7851474B2, “Dipiperazinyl ketones and related analogues” (Neurogen Corporation, priority 2005, dated 2010):

Target: T1, chimeric human H3 receptor (Homo sapiens, UniProt Q9Y5N1, E19D)
T1 construct: made in house; host or cells: Sf9 insect cells (baculovirus infection); P2 membrane preparation
Assay: Chimeric human H3 receptor screening GTP binding assay (inhibition of histamine-stimulated GTP-gamma35S binding, Example 8)
Type: biochemical
Settings: 1 h; Table II "Ki", symbol "+": assay described in Example 8; read-out: percent inhibition of agonist-induced GTP-gammaS binding to H3
How it was run: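 Sf9 membranes co-expressing the chimeric receptor and a heterotrimeric G-protein (35 μg protein) in Tris pH 7.4 buffer with 10 μM GDP; compound at 4 μM plus 1 μM histamine, 125 pM GTP-gamma35S, 60 min at room temperature. Filter-bound radioactivity read; non-specific binding defined with 10 uM GTP-gammaS; percent inhibition of histamine signal.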

T1 sequence (Q9Y5N1 with tags, fused parts or gaps E19D): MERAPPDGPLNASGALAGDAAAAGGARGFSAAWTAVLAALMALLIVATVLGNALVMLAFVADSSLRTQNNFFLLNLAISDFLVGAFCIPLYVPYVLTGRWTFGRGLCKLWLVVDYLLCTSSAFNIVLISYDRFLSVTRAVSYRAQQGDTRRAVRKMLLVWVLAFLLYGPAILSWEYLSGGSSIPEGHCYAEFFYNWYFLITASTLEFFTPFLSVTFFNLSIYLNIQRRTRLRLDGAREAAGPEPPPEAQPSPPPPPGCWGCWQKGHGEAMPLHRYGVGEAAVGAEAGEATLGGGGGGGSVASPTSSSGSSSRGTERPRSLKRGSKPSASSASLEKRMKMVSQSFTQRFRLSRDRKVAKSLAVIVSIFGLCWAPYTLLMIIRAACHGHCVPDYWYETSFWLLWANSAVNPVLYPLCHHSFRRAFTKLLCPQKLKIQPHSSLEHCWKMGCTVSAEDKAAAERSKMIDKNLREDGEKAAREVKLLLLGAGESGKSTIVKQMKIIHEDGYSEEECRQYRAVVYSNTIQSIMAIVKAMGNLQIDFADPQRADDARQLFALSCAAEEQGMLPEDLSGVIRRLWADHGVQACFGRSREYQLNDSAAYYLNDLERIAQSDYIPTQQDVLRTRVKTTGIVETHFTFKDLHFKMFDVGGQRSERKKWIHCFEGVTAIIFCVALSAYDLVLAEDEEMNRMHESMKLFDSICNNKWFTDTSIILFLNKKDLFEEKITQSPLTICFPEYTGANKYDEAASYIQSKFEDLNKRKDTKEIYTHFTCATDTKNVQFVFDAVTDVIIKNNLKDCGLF

| inhibition at 4 µM | Structure (SMILES) |
| --- | --- |
| > 90% | CC(C)Oc1ccc(C(=O)N2CCN(CC(=O)N3CCN(C4CCC4)CC3)CC2)cc1 [Compound 776, 1-cyclobutyl-4-{[4-(4-isopropoxybenzoyl)piperazin-1-yl]acetyl}piperazine] |
| > 90% | CC(C)c1ccc(C(=O)N2CCN(CC(=O)N3CCN(C4CCC4)CC3)CC2)cc1 [Compound 777, 1-cyclobutyl-4-{[4-(4-isopropylbenzoyl)piperazin-1-yl]acetyl}piperazine] |
| > 90% | Cc1ccc(C(=O)N2CCN(CC(=O)N3CCN(C4CCC4)CC3)CC2)cc1 [Compound 783, 1-cyclobutyl-4-{[4-(4-methylbenzoyl)piperazin-1-yl]acetyl}piperazine] |
| > 90% | CCCOc1ccc(C(=O)N2CCN(CC(=O)N3CCN(C4CCC4)CC3)CC2)cc1 [Compound 788, 1-cyclobutyl-4-{[4-(4-propoxybenzoyl)piperazin-1-yl]acetyl}piperazine] |

Same assay, conditions: 1 h; Table II, "+" in the column headed Ki; assay of Example 8; read-out: percent inhibition of agonist-induced GTP-gammaS binding to H3

| Structure (SMILES) | inhibition at 4 µM |
| --- | --- |
| O=C(CN1CCN(C(=O)c2c(F)cccc2F)CC1)N1CCN(C2CCC2)CC1 [Compound 693, 1-cyclobutyl-4-{[4-(2,6-difluorobenzoyl)piperazin-1-yl]acetyl}piperazine] | > 90% |
| Cc1cccc(C)c1C(=O)N1CCN(CC(=O)N2CCN(C3CCC3)CC2)CC1 [Compound 696, 1-cyclobutyl-4-{[4-(2,6-dimethylbenzoyl)piperazin-1-yl]acetyl}piperazine] | > 90% |
| CCC(CC)(C(=O)N1CCN(CC(=O)N2CCN(C3CCC3)CC2)CC1)c1ccccc1 [Compound 702, 1-cyclobutyl-4-{[4-(2-ethyl-2-phenylbutanoyl)piperazin-1-yl]acetyl}piperazine] | > 90% |
| O=C(CN1CCN(C(=O)c2ccccc2F)CC1)N1CCN(C2CCC2)CC1 [Compound 706, 1-cyclobutyl-4-{[4-(2-fluorobenzoyl)piperazin-1-yl]acetyl}piperazine] | > 90% |
| Cc1oc(-c2ccccc2)cc1C(=O)N1CCN(CC(=O)N2CCN(C3CCC3)CC2)CC1 [Compound 713, 1-cyclobutyl-4-{[4-(2-methyl-5-phenyl-3-furoyl)piperazin-1-yl]acetyl}piperazine] | > 90% |
| Cc1ccccc1C(=O)N1CCN(CC(=O)N2CCN(C3CCC3)CC2)CC1 [Compound 714, 1-cyclobutyl-4-{[4-(2-methylbenzoyl)piperazin-1-yl]acetyl}piperazine] | > 90% |
| O=C(CN1CCN(C(=O)c2ccc3ccccc3c2)CC1)N1CCN(C2CCC2)CC1 [Compound 716, 1-cyclobutyl-4-{[4-(2-naphthoyl)piperazin-1-yl]acetyl}piperazine] | > 90% |
| O=C(Cc1ccc2ccccc2c1)N1CCN(CC(=O)N2CCN(C3CCC3)CC2)CC1 [Compound 717, 1-cyclobutyl-4-{[4-(2-naphthylacetyl)piperazin-1-yl]acetyl}piperazine] | > 90% |
| CCCOc1ccccc1C(=O)N1CCN(CC(=O)N2CCN(C3CCC3)CC2)CC1 [Compound 722, 1-cyclobutyl-4-{[4-(2-propoxybenzoyl)piperazin-1-yl]acetyl}piperazine] | > 90% |
| CCOc1ccc(C(=O)N2CCN(CC(=O)N3CCN(C4CCC4)CC3)CC2)cc1OCC [Compound 728, 1-cyclobutyl-4-{[4-(3,4-diethoxybenzoyl)piperazin-1-yl]acetyl}piperazine] | > 90% |
| O=C(CN1CCN(C(=O)c2ccc(F)c(F)c2)CC1)N1CCN(C2CCC2)CC1 [Compound 729, 1-cyclobutyl-4-{[4-(3,4-difluorobenzoyl)piperazin-1-yl]acetyl}piperazine] | > 90% |
| COc1ccc(C(=O)N2CCN(CC(=O)N3CCN(C4CCC4)CC3)CC2)cc1OC [Compound 731, 1-cyclobutyl-4-{[4-(3,4-dimethoxybenzoyl)piperazin-1-yl]acetyl}piperazine] | > 90% |
| Cc1ccc(C(=O)N2CCN(CC(=O)N3CCN(C4CCC4)CC3)CC2)cc1C [Compound 734, 1-cyclobutyl-4-{[4-(3,4-dimethylbenzoyl)piperazin-1-yl]acetyl}piperazine] | > 90% |
| O=C(CN1CCN(C(=O)c2cc(Cl)cc(Cl)c2)CC1)N1CCN(C2CCC2)CC1 [Compound 738, 1-cyclobutyl-4-{[4-(3,5-dichlorobenzoyl)piperazin-1-yl]acetyl}piperazine] | > 90% |
| COc1ccc(C(=O)N2CCN(CC(=O)N3CCN(C4CCC4)CC3)CC2)cc1F [Compound 748, 1-cyclobutyl-4-{[4-(3-fluoro-4-methoxybenzoyl)piperazin-1-yl]acetyl}piperazine] | > 90% |
| O=C(CN1CCN(C(=O)c2cccc(F)c2)CC1)N1CCN(C2CCC2)CC1 [Compound 752, 1-cyclobutyl-4-{[4-(3-fluorobenzoyl)piperazin-1-yl]acetyl}piperazine] | > 90% |

Further lines, results first:

| inhibition at 4 µM | Structure (SMILES) |
| --- | --- |
| > 90% | O=C(CN1CCN(C(=O)c2c(Cl)cccc2Cl)CC1)N1CCN(C2CCC2)CC1 [Compound 691] |
| > 90% | O=C(CN1CCN(C(=O)c2cc(Cl)nc(Cl)c2)CC1)N1CCN(C2CCC2)CC1 [Compound 692] |
| > 90% | COc1cccc(OC)c1C(=O)N1CCN(CC(=O)N2CCN(C3CCC3)CC2)CC1 [Compound 694, 1-cyclobutyl-4-{[4-(2,6-dimethoxybenzoyl)piperazin-1-yl]acetyl}piperazine] |
| > 90% | CCOc1ccccc1C(=O)N1CCN(CC(=O)N2CCN(C3CCC3)CC2)CC1 [Compound 699, 1-cyclobutyl-4-{[4-(2-ethoxybenzoyl)piperazin-1-yl]acetyl}piperazine] |
| > 90% | Cc1cccc(C(=O)N2CCN(CC(=O)N3CCN(C4CCC4)CC3)CC2)c1F [Compound 703, 1-cyclobutyl-4-{[4-(2-fluoro-3-methylbenzoyl)piperazin-1-yl]acetyl}piperazine] |
| > 90% | COc1ccccc1C(=O)N1CCN(CC(=O)N2CCN(C3CCC3)CC2)CC1 [Compound 711, 1-cyclobutyl-4-{[4-(2-methoxybenzoyl)piperazin-1-yl]acetyl}piperazine] |
| > 90% | O=C(CN1CCN(C(=O)c2ccccc2Oc2ccccc2)CC1)N1CCN(C2CCC2)CC1 [Compound 718, 1-cyclobutyl-4-{[4-(2-phenoxybenzoyl)piperazin-1-yl]acetyl}piperazine] |
| > 90% | CCC(C(=O)N1CCN(CC(=O)N2CCN(C3CCC3)CC2)CC1)c1ccccc1 (centres unmarked) [Compound 721, 1-cyclobutyl-4-{[4-(2-phenylbutanoyl)piperazin-1-yl]acetyl}piperazine] |
| > 90% | O=C(CN1CCN(C(=O)c2cccs2)CC1)N1CCN(C2CCC2)CC1 [Compound 723, 1-cyclobutyl-4-{[4-(2-thienylcarbonyl)piperazin-1-yl]acetyl}piperazine] |
| > 90% | COc1cc(C(=O)N2CCN(CC(=O)N3CCN(C4CCC4)CC3)CC2)cc(OC)c1OC [Compound 724, 1-cyclobutyl-4-{[4-(3,4,5-trimethoxybenzoyl)piperazin-1-yl]acetyl}piperazine] |
| > 90% | O=C(CN1CCN(C(=O)c2ccc(Cl)c(Cl)c2)CC1)N1CCN(C2CCC2)CC1 [Compound 726, 1-cyclobutyl-4-{[4-(3,4-dichlorobenzoyl)piperazin-1-yl]acetyl}piperazine] |
| > 90% | COc1c(Cl)cc(Cl)c(OC)c1C(=O)N1CCN(CC(=O)N2CCN(C3CCC3)CC2)CC1 [Compound 737, 1-cyclobutyl-4-{[4-(3,5-dichloro-2,6-dimethoxybenzoyl)piperazin-1-yl]acetyl}piperazine] |
| > 90% | COc1cc(OC)cc(C(=O)N2CCN(CC(=O)N3CCN(C4CCC4)CC3)CC2)c1 [Compound 741, 1-cyclobutyl-4-{[4-(3,5-dimethoxybenzoyl)piperazin-1-yl]acetyl}piperazine] |
| > 90% | Cc1cc(C)cc(C(=O)N2CCN(CC(=O)N3CCN(C4CCC4)CC3)CC2)c1 [Compound 742, 1-cyclobutyl-4-{[4-(3,5-dimethylbenzoyl)piperazin-1-yl]acetyl}piperazine] |
| > 90% | COc1cccc(C(=O)N2CCN(CC(=O)N3CCN(C4CCC4)CC3)CC2)c1 [Compound 757, 1-cyclobutyl-4-{[4-(3-methoxybenzoyl)piperazin-1-yl]acetyl}piperazine] |
| > 90% | CC(C)C(C(=O)N1CCN(CC(=O)N2CCN(C3CCC3)CC2)CC1)c1ccccc1 (centres unmarked) [Compound 760, 1-cyclobutyl-4-{[4-(3-methyl-2-phenylbutanoyl)piperazin-1-yl]acetyl}piperazine] |
| > 90% | Cc1cccc(C(=O)N2CCN(CC(=O)N3CCN(C4CCC4)CC3)CC2)c1 [Compound 761, 1-cyclobutyl-4-{[4-(3-methylbenzoyl)piperazin-1-yl]acetyl}piperazine] |
| > 90% | O=C(CN1CCN(C(=O)c2cccc(Oc3ccccc3)c2)CC1)N1CCN(C2CCC2)CC1 [Compound 764, 1-cyclobutyl-4-{[4-(3-phenoxybenzoyl)piperazin-1-yl]acetyl}piperazine] |
| > 90% | O=C(CN1CCN(C(=O)c2ccsc2)CC1)N1CCN(C2CCC2)CC1 [Compound 765, 1-cyclobutyl-4-{[4-(3-thienylcarbonyl)piperazin-1-yl]acetyl}piperazine] |
| > 90% | Cc1cc(C(=O)N2CCN(CC(=O)N3CCN(C4CCC4)CC3)CC2)oc1C [Compound 766, 1-cyclobutyl-4-{[4-(4,5-dimethyl-2-furoyl)piperazin-1-yl]acetyl}piperazine] |
| > 90% | O=C(CN1CCN(C(=O)c2ccc(F)cc2)CC1)N1CCN(C2CCC2)CC1 [Compound 772, 1-cyclobutyl-4-{[4-(4-fluorobenzoyl)piperazin-1-yl]acetyl}piperazine] |
